Literature values in patent US20220395469A1, “TRANSDERMAL DRUG DELIVERY SYSTEM FOR KETAMINE” (GUANGZHOU DAZHOU BIOMEDICINE LTD., priority 2017, published 2022).

Key:
NMDA receptor = details: in vitro
[1] = not given; remark: listed apart in the source
[2] = three-compartment model, 70-kg human (Fanta et al.)

CN[C@@]1(c2ccccc2Cl)CCCCC1=O [R-ketamine]
psychotomimetic side effects and abuse liability (Yang et al.): free of psychotomimetic side effects and abuse liability | antidepressant effectiveness (animal model studies, versus S-ketamine (Yang et al.)): more effective as an antidepressant than S-ketamine

CN[C@]1(c2ccccc2Cl)CCCCC1=O [S-ketamine]
affinity on NMDA receptor binding relative to R-ketamine (NMDA receptor): ~4 fold

CNC1(c2ccccc2Cl)CCCCC1=O (centres unmarked) [ketamine]
absolute oral bioavailability ([1]; in humans): 10-20% | systemic (primarily hepatic) clearance ([1]; in vivo): about 19 ml/min·kg | V1 [1, 2]: 133 L | clearance [1, 2]: 79.8 L/h | micro constant k12 [1, 2]: 0.174 h⁻¹ | micro constant k13 [1, 2]: 1.18 h⁻¹ | micro constant k21 [1, 2]: 0.124 h⁻¹ | micro constant k31 [1, 2]: 1.59 h⁻¹
